In US20170354148A1, “SAFENED HERBICIDAL COMPOSITIONS CONTAINING HALAUXIFEN AND METHODS OF USE THEREOF IN BRASSICA SPECIES” (Dow AgroSciences LLC, priority 2016, published 2017):

Legend:
[1] = tested on: Aparima Gold swede (Brassica sp., BRSSS); assay: Example 1 pot trials, postemergence crop safety, visual phytotoxicity
[2] = tested on: Aparima Gold swede (Brassica sp., BRSSS); assay: Example 2 field trials (Canterbury, New Zealand), postemergence crop safety, visual phytotoxicity
[3] = tested on: kale/Chinese kale (Brassica alboglabra, BRSAG); details: in vivo
[4] = tested on: rutabaga (Brassica napus var. napobrassica, BRSNA); details: in vivo
[5] = tested on: Nexera™ canola (Brassica napus, BRSNN-NEX); details: in vivo
[6] = tested on: winter oilseed rape (Brassica napus, BRSNW); details: in vivo
[7] = tested on: turnip or Polish canola (Brassica rapa, BRSRR); details: in vivo
[8] = tested on: Roundup Ready® canola (Brassica napus, RR-BRSNN); details: in vivo

SMILES: O=C(O)c1nc(Cl)ccc1Cl [Clopyralid-TIPA, (2RS,2′RS,2″RS)-tris(2-hydroxypropyl)ammonium 3,6-dichloropyridine-2-carboxylate]
- Mean % Visual Injury ([1]; 3DAA1, 90 g ae/ha): 2.2%
- Mean % Visual Injury ([1]; 7DAA1, 90 g ae/ha): 0.4%
- Mean % Visual Injury ([1]; 15DAA1, 90 g ae/ha): 0.0%
- Mean % Visual Injury ([1]; 28DAA1, 90 g ae/ha): 0.0%
- Mean % Visual Growth Inhibition ([2]; 22DAA1, 45 g ae/ha): 2.0%
- Mean % Visual Growth Inhibition ([2]; 22DAA1, 90 g ae/ha): 8.0%
- Mean % Visual Injury ([2]; 22DAA1, 90 g ae/ha): 0.5%
- Mean % Visual Growth Inhibition ([2]; 22DAA1, 180 g ae/ha): 7.0%
- Mean % Visual Injury ([2]; 22DAA1, 180 g ae/ha): 0.5%
- Mean % Visual Growth Inhibition ([2]; 28DAA1, 45 g ae/ha): 2.5%
- Mean % Visual Injury ([2]; 28DAA1, 45 g ae/ha): 2.8%
- Mean % Visual Growth Inhibition ([2]; 28DAA1, 90 g ae/ha): 5.0%
- Mean % Visual Injury ([2]; 28DAA1, 90 g ae/ha): 4.5%
- Mean % Visual Injury ([2]; 28DAA1, 180 g ae/ha): 3.0%
- Mean % Visual Growth Inhibition ([2]; 56DAA1, 45 g ae/ha): 6.0%
- Mean % Visual Growth Inhibition ([2]; 56DAA1, 90 g ae/ha): 2.0%
- Mean % Visual Growth Inhibition ([2]; 56DAA1, 180 g ae/ha): 4.0%

SMILES: NCCO.O=C(O)c1nc(Cl)ccc1Cl [Clopyralidolamine]
- % Visual Injury Obs [3]: 0%
- % Visual Injury Obs [4]: 0%
- % Visual Injury Obs [5]: 0%
- % Visual Injury Obs [6]: 0%
- % Visual Injury Obs [7]: 0%
- % Visual Injury Obs [8]: 0%

SMILES: CCCCCC(C)OC(=O)COc1ccc(Cl)c2cccnc12 (centres unmarked) [Cloquintocet-mexyl, 1-methylhexyl (5-chloroquinolin-8-yloxy)acetate]
- Percent (%) Visual Injury BRSAG Obs [3]: 0%
- Percent (%) Visual Injury BRSNA Obs [4]: 0%
- Percent (%) Visual Injury BRSNN-NEX Obs [5]: 0%
- Percent (%) Visual Injury BRSNW Obs [6]: 0%
- Percent (%) Visual Injury BRSRR Obs [7]: 0%
- Percent (%) Visual Injury RR-BRSNN Obs [8]: 0%
